Patent publication US12012404B2, “Pyrimidoheterocyclic compounds and application thereof” (D3 BIO (WUXI) CO., LTD., priority 2020, dated 2024)

How the values were obtained:
Assay type in all cases: in vitro ADME
[1] = In vitro stability in liver microsomes, CD-1 mice; conditions: CD-1 mice liver microsomes, 0.5 mg/mL
Method: (§1) Purpose of the assay: Metabolic stabilities of the assay compounds in liver microsomes of CD-1 mice, SD rats, beagle dogs, cynomolgus monkeys, and human were assayed, respectively.
(§2) Procedure of the assay: Two 96-well incubation plates were prepared and named T60 incubation plate and NCF60 incubation plate, respectively. 445 μL of microsomal working solutions (liver microsomal protein concentration of 0.56 mg/mL) were added to the T60 incubation plate and the NCF60 incubation plate, respectively, and then the above incubation plates were pre-incubated in a 37° C. water bath for about 10 minutes.
(§3) After the pre-incubation, 5 μL of working solutions of the assay sample or the control compound were added to the T60 incubation plate and the NCF60 incubation plate, respectively, and the mixture was mixed well. 50 μL of potassium phosphate buffer was added to each well of the NCF60 incubation plate to initiate the reaction. 180 μL of stop solution (200 ng/mL tolbutamide and 200 ng/mL labetalol in acetonitrile) and 6 uL of NADPH regeneration system working solution were added to the T0 stop plate, and 54 μL of sample was transferred from T60 incubation plate to T0 stop plate (generation of TO sample). The reaction was initiated by adding 44 μL of NADPH regeneration system working solution to each well of the T60 incubation plate. Only 54 μL of microsome working solution, 6 uL of NADPH regeneration system working solution and 180 μL of stop solution were added to the Blank plate. Therefore, in samples of the assay compound or the control compound, the final reaction concentration of compound, testosterone, diclofenac and propafenone was 1 μM, the concentration of liver microsomes was 0.5 mg/mL, and the final reaction concentrations of DMSO and acetonitrile in the reaction system were 0.01% (v/v) and 0.99% (v/v), respectively.
(§4) After an appropriate time (e.g., 5, 15, 30, 45 and 60 minutes) of incubation, 180 μL of stop solutions (200 ng/mL tolbutamide and 200 ng/mL labetalol in acetonitrile) were added to the sample wells of each stop plate, respectively. 60 μL of sample was removed from the T60 incubation plate to stop the reaction. All sample plates were shaken well and then centrifuged at 3220×g for 20 minutes. Then 80 μL of supernatant was taken out from each well, and diluted in 240 μL of pure water for liquid chromatography-tandem mass spectrometry analysis. All samples were injected and analyzed by liquid chromatography-tandem mass spectrometry.

[2] = In vitro stability in liver microsomes, SD rats; conditions: 0.5 mg/mL
Method: as §1, §2, §3, §4

[3] = In vitro stability in liver microsomes, beagle dogs; conditions: 0.5 mg/mL
Method: as §1, §2, §3, §4

[4] = Stability assay in whole blood, cynomolgus monkeys; conditions: 5 μM, 37° C.
Method: Purpose of the assay: Stabilities of the assay compounds in whole blood of CD-1 mice, SD rats, Beagle dogs and cynomolgus monkeys were assayed, respectively.
Procedure of the assay: On the day of the assay or the day before the assay, fresh whole blood from CD-1 mice, SD rats, beagle dogs, and cynomolgus monkeys was collected using anticoagulant EDTA-K2. Prior to the start of the assay, the whole blood was mixed with PBS in 1:1 (v:v) and the mixture was preheated in a 37° C. water bath for 10-20 minutes. […] […] All samples were incubated in a 37° C. water bath. The final incubation concentration of the compound was 5 μM and the final incubation concentration of the control compound was 2 μM. At the end of incubation for each time point, the corresponding incubation plate was removed and 100 μL of ultrapure water was immediately added to the corresponding sample wells, and mixed well. 800 μL of a solution of 200 ng/mL tolbutamide and labetalol in acetonitrile was added to precipitate the protein. The sample plates were sealed and shaken well, and then centrifuged at 3220×g for 20 min. 150 μL of supernatant was taken out and analyzed by LC/MS/MS.

[5] = tested on: plasma protein of CD-1 mice; test: Protein binding rate by equilibrium dialysis, CD-1 mice plasma; conditions: for Protein unbound rate: CD-1 mice plasma, 2 μM, dialysis 4 hours
Method: (§5) Purpose of the assay: Protein binding rate of the assay compounds in plasma of CD-1 mice, SD rats, beagle dogs, cynomolgus monkeys and human was determined by equilibrium dialysis.
(§6) Procedure of the assay: Plasma samples with a compound concentration of 2 μM were prepared using plasma of the above five species, placed in a 96-well equilibrium dialysis device, and dialyzed with phosphate buffer solution at 37±1° C. for 4 hours. Warfarin was used as the control compound in this assay. The concentrations of the assay compounds in plasma and dialysis buffer were determined by LC-MS/MS method.

plasma protein of human = test: Protein binding rate by equilibrium dialysis, human plasma; conditions: 2 μM, dialysis 4 hours
Method: as §5, §6

| CLint(liver) ([1]; 1 μM) [mL/min/kg] | T1/2 ([1]; 1 μM) [min] | CLint(liver) ([2]; 1 μM) [mL/min/kg] | T1/2 ([2]; 1 μM) [min] | CLint(liver) ([3]; 1 μM) [mL/min/kg] | T1/2 ([3]; 1 μM) [min] | Plasma protein unbound rate PPB (Unbound %) ([5]; mice, as listed in PK Table 9) [%] | Compound | CLint(mic) ([1]; 1 μM) [µL/min/mg] | CLint(mic) ([2]; 1 μM) [µL/min/mg] | CLint(mic) ([3]; 1 μM) [µL/min/mg] | Detection of assay compound content within 120 min [4] [%] | Protein unbound rate [5] | Protein unbound rate (plasma protein of human) | CLint scaled at 1 μM ([1]; mouse) [mL/min/kg] | half-life at 1 μM ([1]; mouse) [min] | CLint scaled at 1 μM ([2]; rat) [mL/min/kg] | half-life at 1 μM ([2]; rat) [min] | CLint scaled at 1 μM ([3]; dog) [mL/min/kg] | half-life at 1 μM ([3]; dog) [min] |
| --- | --- | --- | --- | --- | --- | --- | --- | --- | --- | --- | --- | --- | --- | --- | --- | --- | --- | --- | --- |
| 436.1 | 12.6 | <17.3 | >145 | <13.8 | >145 | 12.0 | C=C(F)C(=O)N1CCN(c2nc(OCC3CCCN3C)nc3c2COC(c2c(F)c(N)cc(C)c2C(F)(F)F)C3)CC1CC#N.Cl (single isomer, unassigned) [Compound 8B hydrochloride] | 110 | < 9.6 | < 9.6 | 58 | 12.0 | 10.6 | – | – | – | – | – | – |
| – | – | – | – | – | – | – | C=C(F)C(=O)N1CCN(c2nc(OC[C@@]34CCCN3C[C@H](F)C4)nc3c2COC(c2c(F)c(N)cc(C)c2C(F)(F)F)C3)C[C@@H]1CC#N (stereo partly shown) [Compound 17] | 285 | 60.2 | < 9.6 | 77 | 1.5 | 4.8 | 1130 | 4.9 | 108 | 23 | < 13.8 | > 145 |
